Source: ChEMBL document CHEMBL3045634, “Quantitative structure activity relationship analysis of angiotensin II AT1 receptor antagonists” (Med Chem Res, 2010)

biological target: T1, Type-1 angiotensin II receptor (Homo sapiens) (UniProt P30556); test: (§1) Antagonist activity at angiotensin 2 type-1 receptor (unknown origin)
T1 sequence (whole entry): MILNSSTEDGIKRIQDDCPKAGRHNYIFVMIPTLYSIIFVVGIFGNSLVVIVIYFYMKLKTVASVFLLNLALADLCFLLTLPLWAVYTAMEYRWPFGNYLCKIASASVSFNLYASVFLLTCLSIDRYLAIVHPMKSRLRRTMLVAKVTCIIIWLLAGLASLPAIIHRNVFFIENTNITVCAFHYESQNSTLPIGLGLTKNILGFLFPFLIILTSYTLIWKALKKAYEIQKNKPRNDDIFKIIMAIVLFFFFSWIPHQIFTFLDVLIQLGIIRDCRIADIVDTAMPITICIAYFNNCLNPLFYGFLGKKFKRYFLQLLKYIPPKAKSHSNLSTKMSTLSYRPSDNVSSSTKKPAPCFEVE

pIC50	SMILES
6.05	CCCCc1ncc(/C=C2/C(=O)N(CCCC)C(=O)N2Cc2ccc(-c3ccccc3)cc2)n1Cc1ccc(C(=O)OC)cc1

biological target: T2, Type-1 angiotensin II receptor (Homo sapiens, UniProt P30556); test: as §1
T2 sequence (P30556 whole entry): T1 sequence (whole entry)

IC50 [nM]	SMILES
4.2	CCCCc1ncc(/C=C2/C(=O)N(CCCC)C(=O)N2Cc2ccc(C(=O)OC)s2)n1Cc1ccc(C(=O)OC)cc1
6.1	CCCCc1ncc(/C=C2/C(=O)N(CCCC)C(=O)N2c2ccccc2)n1Cc1ccc(C(=O)OC)cc1
17.6	CCCCc1ncc(/C=C2/C(=O)N(CCCC)C(=O)N2Cc2ccc(Cl)cc2)n1Cc1ccc(C(=O)OC)cc1
4.9	CCCCc1ncc(/C=C2/C(=O)N(CCCC)C(=O)N2Cc2ccc(O)c(O)c2)n1Cc1ccc(C(=O)OC)cc1
3	CCCCc1ncc(/C=C2/C(=O)N(CCCC)C(=O)N2Cc2ccc(N)cc2)n1Cc1ccc(C(=O)OC)cc1
54.5	CCCCc1ncc(/C=C2/C(=O)N(CCCC)C(=O)N2Cc2c[nH]cn2)n1Cc1ccc(C(=O)OC)cc1
104	CCCCc1ncc(/C=C2/C(=O)N(CCCC)C(=O)N2Cc2ccc3ccccc3c2)n1Cc1ccc(C(=O)OC)cc1
159	CCCCc1ncc(/C=C2/C(=O)N(CCCC)C(=O)N2Cc2ccc(C(F)(F)F)cc2)n1Cc1ccc(C(=O)OC)cc1
884	CCCCc1ncc(/C=C2/C(=O)N(CCCC)C(=O)N2Cc2ccc(-c3ccccc3)cc2)n1Cc1ccc(C(=O)OC)cc1
25.4	CCCCc1ncc(/C=C2/C(=O)N(CCCC)C(=O)N2CCc2csc(Br)c2)n1Cc1ccc(C(=O)OC)cc1
0.9	CCCCc1ncc(/C=C2/C(=O)N(CCCC)C(=O)N2Cc2ccsc2)n1Cc1ccc(C(=O)O)cc1
0.7	CCCCc1ncc(/C=C2/C(=O)N(CCCC)C(=O)N2Cc2cccs2)n1Cc1ccc(C(=O)O)cc1
34.6	CCCCc1ncc(/C=C2/C(=O)N(CCCC)C(=O)N2Cc2ccc(C)cc2)n1Cc1ccc(C(=O)OC)cc1
117	CCCCc1ncc(/C=C2/C(=O)N(CCCC)C(=O)N2Cc2cccc(Cl)c2)n1Cc1ccc(C(=O)OC)cc1
11.1	CCCCc1ncc(/C=C2/C(=O)N(CCCC)C(=O)N2Cc2ccc(C#N)cc2)n1Cc1ccc(C(=O)OC)cc1
9	CCCCc1ncc(/C=C2/C(=O)N(CCC)C(=O)N2Cc2csc(C)n2)n1Cc1ccc(C(=O)OC)cc1
18.5	CCCCc1ncc(/C=C2/C(=O)N(CCCC)C(=O)N2Cc2cccc(C)c2)n1Cc1ccc(C(=O)OC)cc1
9.8	CCCCc1ncc(/C=C2/C(=O)N(CCCC)C(=O)N2Cc2ccc(OC)cc2)n1Cc1ccc(C(=O)OC)cc1
0.6	CCCCc1ncc(/C=C2\C(=O)N(CCCC)C(=O)N2Cc2cccs2)n1Cc1ccc(C(=O)O)cc1
1.9	CCCCc1ncc(/C=C2/C(=O)N(CCCC)C(=O)N2Cc2csc(C)n2)n1Cc1ccc(C(=O)OC)cc1
245	CCCCc1ncc(/C=C2/C(=O)N(CCCC)C(=O)N2Cc2c[nH]c(C)n2)n1Cc1ccc(C(=O)OC)cc1
8.3	CCCCc1ncc(/C=C2/C(=O)N(CCCC)C(=O)N2Cc2ccoc2)n1Cc1ccc(C(=O)OC)cc1
0.6	CCCCc1ncc(/C=C2/C(=O)N(CCCC)C(=O)N2Cc2ccc(C)s2)n1Cc1ccc(C(=O)O)cc1
4.8	CCCCc1ncc(/C=C2/C(=O)N(CCCC)C(=O)N2Cc2ccsc2)n1Cc1ccc(C(=O)OC)cc1

Further lines, the compound ahead of its results:

SMILES	IC50 [nM]
CCCCc1ncc(/C=C2/C(=O)NC(=O)N2Cc2ccccc2)n1Cc1ccc(C(=O)O)cc1	4
CCCCc1ncc(/C=C2\C(=O)NC(=O)N2CCC(C)C)n1Cc1ccc(C(=O)O)cc1	4.9
CCCCc1ncc(/C=C2/C(=O)NC(=O)N2Cc2ccc(Cl)cc2)n1Cc1ccc(C(=O)O)cc1	3
CCCCc1ncc(/C=C2/C(=O)N(CCCC)C(=O)N2CCCC)n1Cc1ccc(S(=O)(=O)NC(F)(F)F)cc1	29.6
CCCCc1ncc(/C=C2\C(=O)NC(=O)N2Cc2cccs2)n1Cc1ccc(C(=O)O)cc1	2.6
CCCCc1ncc(/C=C2/C(=O)N(CCCO)C(=O)N2Cc2csc(C)n2)n1Cc1ccc(C(=O)OC)cc1	47.9
CCCCc1ncc(/C=C2/C(=O)N(CCCC)C(=O)N2C=C(C)C)n1Cc1ccc(C(=O)OC)cc1	11.1
CCCCc1ncc(/C=C2/C(=O)N(CCCC)C(=O)N2Cc2csc(N)n2)n1Cc1ccc(C(=O)O)cc1	0.6
CCCCc1ncc(/C=C2\C(=O)NC(=O)N2CCCC)n1Cc1ccc(-c2nn[nH]n2)cc1	4.2
CCCCc1ncc(/C=C2/C(=O)NC(=O)N2CCCC)n1Cc1ccc(-c2nn[nH]n2)cc1	7.1
CCCCc1ncc(/C=C2\C(=O)NC(=O)N2CCCC)n1Cc1ccc(C2(C(=O)OC)CCCC2)cc1	2.5
CCCCc1ncc(/C=C2\C(=O)N(CCCC)C(=O)N2Cc2csc(N)n2)n1Cc1ccc(C(=O)O)cc1	0.5
CCCCc1ncc(/C=C2\C(=O)N(CCCC)C(=O)N2CCCC)n1Cc1ccc(C(=O)O)cc1	0.5
CCCCc1ncc(/C=C2/C(=O)NC(=O)N2CCC(C)C)n1Cc1ccc(C(=O)O)cc1	6.6
CCCCc1ncc(/C=C2\C(=O)N(CCCC)C(=O)N2Cc2csc(C)n2)n1Cc1ccc(C(=O)O)cc1	1.7
CCCCc1ncc(/C=C2\C(=O)NC(=O)N2Cc2ccccc2)n1Cc1ccc(C(=O)O)cc1	3.4
CCCCc1ncc(/C=C2/C(=O)NC(=O)N2CCCC)n1Cc1ccc(S(=O)(=O)NC(F)(F)F)cc1	3.3
CCCCc1ncc(/C=C2/C(=O)N(C)C(=O)N2Cc2csc(C)n2)n1Cc1ccc(C(=O)OC)cc1	16.6
CCCCc1ncc(/C=C2/C(=O)N(CCCC)C(=O)N2Cc2cc(C)cs2)n1Cc1ccc(C(=O)O)cc1	1.5
CCCCc1ncc(/C=C2/C(=O)N(CCCC)C(=O)N2Cc2csc(C)n2)n1Cc1ccc(C2(C(=O)O)CCCC2)cc1	8
CCCCc1ncc(/C=C2/C(=O)N(CSCC)C(=O)N2Cc2csc(C)n2)n1Cc1ccc(C(=O)OC)cc1	9.6
CCCCc1ncc(/C=C2/C(=O)N(CCCC(F)(F)F)C(=O)N2Cc2csc(C)n2)n1Cc1ccc(C(=O)OC)cc1	70
CCCCc1ncc(/C=C2/C(=O)NC(=O)N2Cc2cccs2)n1Cc1ccc(C(=O)OC)cc1	7.1
CCCCc1ncc(/C=C2/C(=O)NC(=O)N2CCCC)n1Cc1ccc(-c2ccccc2-c2nn[nH]n2)cc1	1.4
CCCCc1ncc(/C=C2/C(=O)NC(=O)N2CCCC)n1Cc1ccc(C(=O)OC)cc1	3.5
CCCCc1ncc(/C=C2/C(=O)NC(=O)N2Cc2cccs2)n1Cc1ccc(C(=O)O)cc1	2.3
